# Experiments:
# Experiment in all cases: relative viability (nuclei count vs DMSO), 5 days (fraction); higher = more cells survive
# NCI-H2087 = system: NCI-H2087
# How it was run: (§1)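 Relative viability is defined as nuclei in treated wells over nuclei in vehicle wells. Duplicate plates were run and medians reported. Lung cancer cell lines in 1536-well plates were dosed by pin tool one day after seeding, with one drug or with a fixed anchor-drug dose plus five library-drug doses (not always all listed) in √10 steps, and nuclei were counted after 5 days.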
# NCI-H1734 = system: NCI-H1734
# How it was run: as §1
# NCI-H522 = system: NCI-H522
# How it was run: as §1
# NCI-H1993 = system: NCI-H1993
# How it was run: as §1
# NCI-H1792 = system: NCI-H1792
# How it was run: as §1
# NCI-H1437 = system: NCI-H1437
# How it was run: as §1
# NCI-H1395 = system: NCI-H1395
# How it was run: as §1
# SK-LU-1 = system: SK-LU-1
# How it was run: as §1
# NCI-H2405 = system: NCI-H2405
# How it was run: as §1
# NCI-H647 = system: NCI-H647
# How it was run: as §1
# HCC-827 = system: HCC-827
# How it was run: as §1
# NCI-H1355 = system: NCI-H1355
# How it was run: as §1
# BEN = system: BEN
# How it was run: as §1
# EKVX = system: EKVX
# How it was run: as §1
# NCI-H661 = system: NCI-H661
# How it was run: as §1
# NCI-H2009 = system: NCI-H2009
# How it was run: as §1
# HARA = system: HARA
# How it was run: as §1
# HCC-366 = system: HCC-366
# How it was run: as §1
# SK-MES-1 = system: SK-MES-1
# How it was run: as §1
# NCI-H2342 = system: NCI-H2342
# How it was run: as §1
# LOU-NH91 = system: LOU-NH91
# How it was run: as §1
# NCI-H2170 = system: NCI-H2170
# How it was run: as §1
structure (smiles),measurement,setting,value
O=c1cc(N2CCOCC2)oc2c(-c3cccc4c3sc3ccccc34)cccc12 + CC(=O)c1c(C)c2cnc(Nc3ccc(N4CCNCC4)cn3)nc2n(C2CCCC2)c1=O [Palbociclib] (partner 0.5 µM),relative viability,NCI-H2087; first compound 0.01 µM,0.218
same,relative viability,NCI-H2087; first compound 0.03162 µM,0.245
same,relative viability,NCI-H2087; first compound 0.1 µM,0.221
same,relative viability,NCI-H2087; first compound 0.3162 µM,0.229
same,relative viability,NCI-H2087; first compound 1 µM,0.217
same,relative viability,NCI-H1734; first compound 0.01 µM,0.324
same,relative viability,NCI-H1734; first compound 0.03162 µM,0.342
same,relative viability,NCI-H1734; first compound 0.1 µM,0.434
same,relative viability,NCI-H1734; first compound 0.3162 µM,0.352
same,relative viability,NCI-H1734; first compound 1 µM,0.374
same,relative viability,NCI-H522; first compound 0.01 µM,0.887
same,relative viability,NCI-H522; first compound 0.03162 µM,1.25
same,relative viability,NCI-H522; first compound 0.1 µM,0.831
same,relative viability,NCI-H522; first compound 0.3162 µM,0.948
same,relative viability,NCI-H522; first compound 1 µM,0.977
same,relative viability,NCI-H1993; first compound 0.01 µM,0.738
same,relative viability,NCI-H1993; first compound 0.03162 µM,0.6
same,relative viability,NCI-H1993; first compound 0.1 µM,0.658
same,relative viability,NCI-H1993; first compound 0.3162 µM,0.64
same,relative viability,NCI-H1993; first compound 1 µM,0.545
same,relative viability,NCI-H1792; first compound 0.01 µM,0.641
same,relative viability,NCI-H1792; first compound 0.03162 µM,0.577
same,relative viability,NCI-H1792; first compound 0.1 µM,0.658
same,relative viability,NCI-H1792; first compound 0.3162 µM,0.668
same,relative viability,NCI-H1792; first compound 1 µM,0.683
same,relative viability,NCI-H1437; first compound 0.01 µM,0.3
same,relative viability,NCI-H1437; first compound 0.03162 µM,0.312
same,relative viability,NCI-H1437; first compound 0.1 µM,0.282
same,relative viability,NCI-H1437; first compound 0.3162 µM,0.31
same,relative viability,NCI-H1437; first compound 1 µM,0.281
same,relative viability,NCI-H1395; first compound 0.03162 µM,0.547
same,relative viability,NCI-H1395; first compound 0.1 µM,0.634
same,relative viability,NCI-H1395; first compound 0.3162 µM,0.631
same,relative viability,NCI-H1395; first compound 1 µM,0.637
same,relative viability,SK-LU-1; first compound 0.01 µM,0.473
same,relative viability,SK-LU-1; first compound 0.03162 µM,0.425
same,relative viability,SK-LU-1; first compound 0.1 µM,0.368
same,relative viability,SK-LU-1; first compound 0.3162 µM,0.391
same,relative viability,SK-LU-1; first compound 1 µM,0.347
same,relative viability,NCI-H2405; first compound 0.01 µM,0.566
same,relative viability,NCI-H2405; first compound 0.03162 µM,0.542
same,relative viability,NCI-H2405; first compound 0.1 µM,0.531
same,relative viability,NCI-H2405; first compound 0.3162 µM,0.513
same,relative viability,NCI-H2405; first compound 1 µM,0.527
same,relative viability,NCI-H647; first compound 0.01 µM,0.392
same,relative viability,NCI-H647; first compound 0.03162 µM,0.409
same,relative viability,NCI-H647; first compound 0.1 µM,0.387
same,relative viability,NCI-H647; first compound 0.3162 µM,0.364
same,relative viability,NCI-H647; first compound 1 µM,0.314
same,relative viability,HCC-827; first compound 0.01 µM,0.52
same,relative viability,HCC-827; first compound 0.03162 µM,0.485
same,relative viability,HCC-827; first compound 0.1 µM,0.457
same,relative viability,HCC-827; first compound 0.3162 µM,0.53
same,relative viability,HCC-827; first compound 1 µM,0.47
same,relative viability,NCI-H1355; first compound 0.01 µM,0.424
same,relative viability,NCI-H1355; first compound 0.03162 µM,0.403
same,relative viability,NCI-H1355; first compound 0.1 µM,0.412
same,relative viability,NCI-H1355; first compound 0.3162 µM,0.39
same,relative viability,NCI-H1355; first compound 1 µM,0.392
same,relative viability,BEN; first compound 0.01 µM,0.427
same,relative viability,BEN; first compound 0.03162 µM,0.476
same,relative viability,BEN; first compound 0.1 µM,0.476
same,relative viability,BEN; first compound 0.3162 µM,0.514
same,relative viability,BEN; first compound 1 µM,0.506
same,relative viability,EKVX; first compound 0.01 µM,0.376
same,relative viability,EKVX; first compound 0.03162 µM,0.363
same,relative viability,EKVX; first compound 0.1 µM,0.484
same,relative viability,EKVX; first compound 0.3162 µM,0.43
same,relative viability,EKVX; first compound 1 µM,0.332
same,relative viability,NCI-H661; first compound 0.01 µM,0.417
same,relative viability,NCI-H661; first compound 0.03162 µM,0.41
same,relative viability,NCI-H661; first compound 0.1 µM,0.375
same,relative viability,NCI-H661; first compound 0.3162 µM,0.416
same,relative viability,NCI-H661; first compound 1 µM,0.398
same,relative viability,NCI-H2009; first compound 0.01 µM,0.234
same,relative viability,NCI-H2009; first compound 0.03162 µM,0.25
same,relative viability,NCI-H2009; first compound 0.1 µM,0.22
same,relative viability,NCI-H2009; first compound 0.3162 µM,0.177
same,relative viability,NCI-H2009; first compound 1 µM,0.158
same,relative viability,HARA; first compound 0.01 µM,0.253
same,relative viability,HARA; first compound 0.03162 µM,0.252
same,relative viability,HARA; first compound 0.1 µM,0.201
same,relative viability,HARA; first compound 0.3162 µM,0.278
same,relative viability,HARA; first compound 1 µM,0.307
same,relative viability,HCC-366; first compound 0.01 µM,0.371
same,relative viability,HCC-366; first compound 0.03162 µM,0.417
same,relative viability,HCC-366; first compound 0.1 µM,0.409
same,relative viability,HCC-366; first compound 0.3162 µM,0.367
same,relative viability,HCC-366; first compound 1 µM,0.382
same,relative viability,SK-MES-1; first compound 0.01 µM,0.274
same,relative viability,SK-MES-1; first compound 0.03162 µM,0.343
same,relative viability,SK-MES-1; first compound 0.1 µM,0.359
same,relative viability,SK-MES-1; first compound 0.3162 µM,0.341
same,relative viability,SK-MES-1; first compound 1 µM,0.295
same,relative viability,NCI-H2342; first compound 0.01 µM,0.539
same,relative viability,NCI-H2342; first compound 0.03162 µM,0.502
same,relative viability,NCI-H2342; first compound 0.1 µM,0.537
same,relative viability,NCI-H2342; first compound 0.3162 µM,0.529
same,relative viability,NCI-H2342; first compound 1 µM,0.508
same,relative viability,LOU-NH91; first compound 0.01 µM,0.525
same,relative viability,LOU-NH91; first compound 0.03162 µM,0.527
same,relative viability,LOU-NH91; first compound 0.1 µM,0.522
same,relative viability,LOU-NH91; first compound 0.3162 µM,0.537
same,relative viability,LOU-NH91; first compound 1 µM,0.574
same,relative viability,NCI-H2170; first compound 0.01 µM,0.424
same,relative viability,NCI-H2170; first compound 0.03162 µM,0.422
same,relative viability,NCI-H2170; first compound 0.1 µM,0.408
same,relative viability,NCI-H2170; first compound 0.3162 µM,0.405
same,relative viability,NCI-H2170; first compound 1 µM,0.371

# Reference: the supplement of paper PMC10307832
